Assays:
U937 cells = assay: Induction of vacuole production in the U937 tumoral cell line; format: cell-based, human; details: 10 nM, 24 hours
Procedure: U937 cells were treated with 10 nM of the compound according to example 9 for 24 hours. The treatment methods are those described in detail in example 55.

U-937 cells = assay: Production of IL-12p70 and IL-10 by the dendritic cells (ELISA); format: cell-based, human
Procedure: The culture supernatants are frozen at a temperature of −80° C. until the time of testing for the presence of cytokines. The presence of IL-12p70 and IL-10 is measured using ELISA kits obtained from “Endogen” (Woburn, Mass., USA).
This phenomenon continues for the two weeks of treatment.

A549 cells [1] = assay: Induction of vacuole production in the A549 tumoral cell line; format: cell-based, human
Procedure: A549 cells were treated with 100 nM of compound according to example 9, for 12 hours.
The A549 cells were obtained from the American Tissue Culture Collection (ATCC); they were inoculated at a density of 50 000 cells per well into 12-well plates and were cultured in RPMI medium supplemented with 5% fetal calf serum. To perform the treatment with the compound according to the invention, the cells are incubated with said compound (or with a control product) for 48 hours. The cells are then observed by phase-contrast microscopy every four hours to monitor the formation of vacuoles, and are then fixed with 0.4% paraformaldehyde solution in phosphate-buffered saline (PBS) at pH 7.4.
To obtain photograph D indicated above, the process was performed as follows: after treating the cells, the culture medium is removed and the cells are washed with PBS at pH 7.4. The cells are incubated for 10 minutes with 1 μM solutions of monodansyl cadaverine (MDC). They are then rinsed thoroughly with PBS solution at 4° C. One drop of “Vectashield” solution (Vector Laboratories, CA) is added before mounting between microscope slide and cover slip: the cells are then observed rapidly under the microscope and photographed.
The A549 cells treated as indicated above with the compound according to example 9 were also examined by electron microscopy. To examine these A549 cells by electron microscopy, they are fixed using a solution of PBS containing 3% glutaraldehyde, taken up in resin (EPON) and finally cut into thin slices using an ultra-microtome. These slices are then placed on 200-mesh copper grilles and examined by electron microscopy. […] In this FIG. 11, the letters used have the following meanings: N=nucleus; C=cytoplasm; M=mitochondria; Vi=intracytoplasmic vesicles; Ve=extracellular vesicles; MLB=multilamellar body.

[2] = test system: C57BL/6 mouse spleen monocytes; assay: Dendritogenesis on C57BL/6 mouse spleen monocytes; format: cell-based; details: dose of 1 nM, 36 hours after the start of action
Procedure: 1) On C57BL/6 Mouse Spleen Monocytes
5-week-old mice are sacrificed by cervical dislocation. They are then dissected. The spleens are removed under sterile conditions and then placed in a cold solution (4° C.) containing serum-free culture medium supplemented with antibiotics (streptomycin and penicillin). The spleens are ground in a sterile fume cupboard and then filtered through a 100 μm filter. The eluate is recovered and then centrifuged at 1000 rpm for 5 minutes at 4° C. The cell pellet is resuspended in phosphate-buffered saline (PBS) solution containing […], the purpose of which is to lyze the red blood cells. The suspension is centrifuged at 1000 rpm and the cells are then resuspended in PBS. The washing operation is performed twice. The final resuspension is performed in whole culture medium, and the cells are counted and distributed into six-well dishes at a density of 40 000 cells/ml. Four hours later, the adhering cells are washed vigorously with PBS in order to remove the cells that might remain attached to the adhering cells or to the culture dish.
The conversion was obtained with a dose of 1 nM, the photograph having been taken 36 hours after the start of action of the product. The test product is that of example 9. The appearance of cellular extensions is observed, which is one of the main characteristics of activated dendritic cells.

A549 cells [3] = assay: Actin and tubulin skeleton on treated A549 cells (fluorescence microscopy); format: cell-based, human
Procedure: A549 cells were treated with the compound of example 9 according to the protocol described in detail in example 55; they are inoculated onto glass slides placed at the bottom of six-well culture dishes (NUNC) at a density of 50 000 cells per well in a nutrient medium of “RPMI 1640” type sold by the company “Gibco BRL”, supplemented with 10% fetal calf serum. The cells are then fixed with 3% paraformaldehyde solution and are permeabilized with a detergent solution containing 0.1% “Triton-X-100” in PBS. The actin skeleton of the treated cells was observed by labeling the cells with phalloidin-FITC.
In this case, the A549 cells are labeled with an anti-γ-tubulin antibody and developed with an anti-IgG-FITC antibody.

[4] = test system: U-937 human myeloid leukemia cells; assay: Dendritogenesis on U-937 human myeloid leukemia cells; format: cell-based; details: 1 nM
Description: 2) On U-937 Human Myeloid Leukemia Cells

[5] = test system: TS/A tumors implanted onto BALB/c mice; assay: Growth tests on tumors implanted onto BALB/c mice; format: in vivo; details: for tumor growth relative to the control mice: intradermal in the region of the tumor
Procedure: The tumors are implanted in the following manner: 1×10^6 TS/A cells are inoculated by intradermal injection into the right side of the abdomen of 5-6-week-old BALB/c mice (Janvier breeding station, Le Genest Saint Isle).
The test molecule is the one corresponding to example 9; it is injected on the third day intradermally in the region of the tumor; the result is shown in FIG. 7.
The same experiment as that described above was repeated, changing the area of injection of the molecule corresponding to example 9; the injection is performed on the third day after implantation of the tumor, intradermally into the controlateral position relative to said implantation. […] This illustrates the efficacy of the treatment for an administration of the test compound remote from the tumor. The results obtained are represented by the curves in FIG. 17.

## CC(C)CCC[C@@H](C)[C@H]1CC[C@H]2[C@@H]3C[C@@H](NCCc4c[nH]cn4)[C@@]4(O)C[C@@H](O)CC[C@]4(C)[C@H]3CC[C@]12C [Example 9, cholestane-3β,5α-diol-6β-N-[2-ethylamino(1H-imidazol-4-yl)]]
U937 cells
  induction of vacuole production in U937 cells (electron microscopy): numerous intracytoplasmic vacuoles have appeared
U-937 cells; from 36 hours after the start of the treatment, continues for the two weeks of treatment
  production of the p70 subunit of IL-12: stimulates the production of the p70 subunit of IL-12
U-937 cells; treatments extending over a period of two weeks
  transcription/production of IL-10: does not stimulate the transcription of IL-10
A549 cells [1]; 100 nM, 12 hours
  induction of vacuole production in A549 cells: massive production of cytoplasmic vacuoles
A549 cells [1]; A549 cells
  dose dependence of the vacuole effect: dose-dependent
  time after the treatment at which the vacuole effect appears: six
  time after the treatment at which the vacuole effect reaches a maximum: 12 h
A549 cells [1]; FIG. 11.2
  electron microscopy of treated A549 cells: numerous vacuoles and mitochondria are also observed in the cytoplasm
A549 cells [1]; growth medium replaced with fresh medium
  reversibility of the vacuole effect: reversible
[2]
  morphological changes on the mouse monocytes, conversion into dendritic cells: conversion resulting in dendritic cells
A549 cells [3]; FIG. 12 photograph 2
  actin skeleton of treated A549 cells (phalloidin-FITC): appearance of refringent vesicles, which are surrounded by actin
A549 cells [3]; FIG. 13 photograph 2
  tubulin skeleton of treated A549 cells (anti-γ-tubulin antibody): presence of intracytoplasmic vacuoles, which are not surrounded with γ-tubulin
[4]; after treatment for 5 days
  formation of rosettes (aggregate of entangled cells): formation of a large number of rosettes
  size of the dendrites: up to 100 μm
[4]; treatment for 2 days, after 10 ng/ml PMA
  induction of differentiation of the U-937 cells into dendritic cells: appearance of dendritic cells
[5]; 8.5 ng/g of mouse, third day
  tumor growth relative to the control mice: slowing-down effect
[5]; 1.7 μg/g of mouse, third day
  tumor growth relative to the control mice: no tumor is detectable
[5]; 1.7 μg/g of mouse, intradermal, controlateral position, third day
  tumor growth relative to the control mice, administration remote from the tumor: slowing-down of the tumoral growth
[5]; 1.7 μg/g, whether or not a tumor has been implanted
  peripheral lymphoid system, activation of the immune system: hyperplasia of the peripheral lymphoid system is observed
[5]; intradermal injection
  necrosis in the area of injection (anatomopathology): no trace of necrosis is observable

Source: patent US7947668B2, “Aminoalkyl sterol compounds having an anti-tumoral and neuroprotective activity” (Institut National de la Sante et de la Recherche Medicale, priority 2002, dated 2011)
